What all share (experiment): DTP human tumour cell line panel, 48 h
For test [1], the system named is IGROV1 ovarian.
Test [2] relates to MCF7 breast.
In test [3] the test system is SF-539 CNS.
In test [4] the test system is NCI/ADR-RES ovarian.
For test [5], the system named is SR leukemia.
Test [6] relates to UO-31 renal.
The test system of test [7] is NCI-H226 lung.
Test [8] concerns RPMI-8226 leukemia.
Test [9] deals with NCI-H23 lung.
Test [10] concerns HT29 colon.

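Five concentrations, 48 hours, 96-well plates. GI50 marks 50% less growth. TGI: total growth inhibition.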 Bounds are passed on as bounds.

In general, GI50 refers to the concentration giving 50% growth inhibition. As usually defined, the TGI is the concentration at which net growth stops. Higher therefore signals lower sensitivity of the cells. Consider `O=C(/C(=C/c1cccc([N+](=O)[O-])c1)c1ccccc1)c1ccccc1`, for which the GI50 in test [1] is 3.38 µM; in test [2], 3.34 µM; in test [3], 3.49 µM; in test [4] it was 2.98 µM; in test [5] it was 2.7 µM; in test [6] it was 2.21 µM. The GI50 is 3.08 µM in [7], 2.34 µM in [8], 2.92 µM in test [9] and 3.24 µM in test [10]. The TGI in test [1] is 27.8 µM; in test [2] it was 13.3 µM; in test [3], 11.9 µM; in [4] it was more than 100 µM; in [5], more than 100 µM; in test [6], 5.85 µM. For the same molecule, the TGI in [7] worked out at 11.5 µM; in test [8] it was 7.68 µM; in [9] it was 17 µM; in test [10] it was 8.83 µM.
Turning to `c1cc2c(ncc3cscc32)s1`, the TGI in test [1] was more than 31.6 µM; in test [2], more than 100 µM; in [3], more than 100 µM; in [4] it was more than 100 µM; in [5] it was more than 100 µM; in test [6] it was more than 100 µM. The total growth inhibition concentration (TGI) in test [7], in [8], in test [9] and in test [10] was more than 100 µM in each case.
Turning to `Cn1cnc([N+](=O)[O-])c1[Se]c1nc(N)nc2c1ncn2C1OC(CO)C(O)C1O` (configuration not stated), the total growth inhibition concentration (TGI) in test [1], in [2], in test [3], in test [4], in test [5] and in test [6] was more than 100 µM in each case. For the same molecule, the concentration for total growth inhibition (TGI) in test [7], in test [8], in test [9] and in [10] was more than 100 µM throughout.
Take `COc1ccccc1Cn1cc2c(c1-c1ccccc1)CCc1cnoc1-2`: the GI50 in test [1] was 3.6 µM; in test [2], 2.33 µM; in [3], 2.57 µM; in [4], 0.848 µM; in test [5], 0.491 µM; in [6], 3.46 µM. Also, the GI50 in [7] was 8.52 µM; in test [8], 3.78 µM; in test [9], 3.36 µM; in test [10] it was 2.02 µM. Besides, the total growth inhibition concentration (TGI) in test [1] is more than 100 µM; in test [2], more than 100 µM; in test [4] it was 4.47 µM; in test [5], 56.5 µM; in [6], 78.6 µM; in test [7] it was more than 100 µM. Besides, the TGI in test [8] was more than 100 µM; in [9], 74 µM; in test [10] it was 7.3 µM.
Regarding `COc1cc2c3c(n(CCCCOC(=O)C(Cl)(Cl)Cl)c(=O)c2cc1OC)-c1cc2c(cc1C3=O)OCO2`, the GI50 in [1] is 14.4 µM; in test [2], 11.5 µM; in test [3], 60.1 µM; in test [4] it was 82.7 µM; in test [5] it was 1.14 µM; in test [6], 14.1 µM. For the same molecule, the GI50 in [7] was 67.6 µM; in test [8] it was more than 100 µM; in [9], 92 µM; in test [10], more than 100 µM. In addition, the concentration for total growth inhibition (TGI) in [1] is more than 100 µM; in test [2], more than 100 µM; in test [3], more than 100 µM; in [4], more than 100 µM; in test [5], 15 µM; in [6], more than 100 µM. Also, the TGI in test [7], in [8], in test [9] and in test [10] was more than 100 µM throughout.
As to `CCc1oc2ccccc2c1C(=O)c1cc(I)c(O)c(I)c1`, the GI50 is 4.02 µM in test [2]; 2.28 µM in test [3]; 1.49 µM in [4]; 0.568 µM in test [5]; 1.82 µM in test [6]; 10.6 µM in test [7]. Besides, the values for the GI50 in test [8], in test [9] and in test [10] were 2.33 µM, 3.91 µM and 3.61 µM, respectively. The concentration for total growth inhibition (TGI) was found to be 14.7 µM in [2]; 10.4 µM in [3]; 5.25 µM in [4]; 17.9 µM in test [5]; 10.5 µM in test [6]; 27 µM in test [7]. The concentration for total growth inhibition (TGI) in test [8] was 30.5 µM; in test [9], 17.4 µM; in [10] it was 14.5 µM.
Regarding `Cc1ccc(NC(=O)c2sc3nc(C)c(C(O)c4ccccc4)cc3c2N)cc1` (configuration not stated), the GI50 in test [1] is 0.634 µM; in test [2], 0.368 µM; in [3], 0.287 µM; in test [4], 0.39 µM; in test [5], 0.283 µM; in test [6] it was 0.72 µM. For the same molecule, the GI50 was 1.27 µM in test [7], 0.421 µM in test [8], 0.722 µM in [9] and 0.358 µM in test [10]. Further, the TGI is 36.8 µM in [1]; more than 57.6 µM in test [2]; 1.3 µM in test [3]; 18.9 µM in test [4]; more than 25.6 µM in test [5]; 41.6 µM in test [6]. In addition, the total growth inhibition concentration (TGI) in test [7] is 41.2 µM; in test [8], 43.3 µM; in test [9], more than 100 µM; in test [10] it was 14.8 µM.
As to `COc1cc2c3c(n(CCNCCCNCCn4c5c(c6cc(OC)c(OC)cc6c4=O)C(=O)c4ccccc4-5)c(=O)c2cc1OC)-c1ccccc1C3=O`, the GI50 in [1] was 0.0523 µM; in test [2] it was 0.0878 µM; in test [3], 0.199 µM; in test [4], more than 100 µM; in test [5], 0.0191 µM; in [6], more than 65.1 µM. For the same molecule, the GI50 in [7] was 0.3 µM; in test [8] it was less than 0.018 µM; in test [9], 1.2 µM; in test [10], 0.0448 µM. Moreover, the TGI in [1] was 9.57 µM; in test [2], 2.9 µM; in test [3] it was 15.5 µM; in test [4], more than 100 µM; in test [5] it was 0.702 µM; in [6], more than 100 µM. The TGI in [7] stood at 3.04 µM; in [8] it was 0.614 µM; in [9], 17 µM.
On to `COC(=O)[C@H](Cc1c[nH]c2ccccc12)NC(=O)[C@@H](OC)[C@@H]1Cc2cc3cc(OC4CC(OC5CC(O)C(O)C(C)O5)C(O)C(C)O4)c(C)c(O)c3c(O)c2C(=O)[C@H]1OC1CC(OC2CC(OC3CC(C)(O)C(O)C(C)O3)C(O)C(C)O2)C(O)C(C)O1` (some centres not stated), for which the GI50 is 0.00743 µM in [1]; 0.00391 µM in test [2]; 0.00546 µM in [3]; more than 11.7 µM in [4]; 0.00376 µM in test [5]; 0.215 µM in test [6]. In addition, the 50% growth inhibitory concentration (GI50) in test [7] is 0.0065 µM; in test [8] it was 0.00557 µM; in [9] it was 0.00614 µM; in test [10], 0.00611 µM. Besides, the TGI was more than 7.79 µM in test [1]; 2.55 µM in [2]; 0.0244 µM in test [3]; more than 16.5 µM in test [4]; more than 8.99 µM in test [5]; 1.18 µM in test [6]. In addition, the values for the total growth inhibition concentration (TGI) in [7], in [8] and in test [9] were 0.145 µM, 0.0607 µM and 0.0506 µM, respectively.
As to `C=C1C(=O)O[C@H]2[C@H]1CC/C(COC(=O)c1cc3ccccc3s1)=C\CC[C@@]1(C)O[C@@H]21`, the GI50 in test [1] was 1.76 µM; in test [2], 0.389 µM; in test [3] it was 1.6 µM; in test [4], 2.14 µM; in [5] it was 0.52 µM; in test [6] it was 1.4 µM. In addition, the GI50 in test [7] was 2 µM; in [8], 0.566 µM; in test [9], 1.74 µM; in test [10], 0.499 µM. In addition, the TGI in test [1] is 3.58 µM; in [2] it was 2.02 µM; in test [3] it was 3.34 µM; in test [4], 6.63 µM; in test [5], 4.54 µM; in test [6], 2.79 µM. The concentration for total growth inhibition (TGI) in test [7] was found to be 4.63 µM; in [8], 4.79 µM; in test [9] it was 3.84 µM; in test [10], 1.84 µM.
With `CC1(C)N=C(N)N=C(N)N1c1ccc(OCc2ccc(S(=O)(=O)F)c(Cl)c2)c(Cl)c1`, the concentration for 50% growth inhibition (GI50) in test [1] is 0.123 µM; in test [2] it was 0.641 µM; in test [3] it was 4.57 µM; in test [4], 60 µM; in [5], 0.432 µM; in [6], 46 µM. In addition, the GI50 was 9.72 µM in test [7], more than 100 µM in test [8], 2.09 µM in test [9] and 0.845 µM in [10]. The TGI in [1], in [2], in [3], in test [4], in test [5] and in test [6] was more than 100 µM each time. Further, the TGI in [7], in test [8], in test [9] and in [10] was more than 100 µM in each case.
On to `O=c1[nH]c(=O)n(C2OC(CO)C(O)C(O)C2O)cc1F` (configuration not stated), for which the concentration for total growth inhibition (TGI) in [1], in [2], in test [3], in [4], in test [5] and in test [6] was more than 100 µM each time. Also, the TGI in test [7], in test [8], in [9] and in test [10] was more than 100 µM throughout.
For `C=C(C)C1CCC2(C(=O)O)CCC3(C)C(CCC4C5(C)CCC(OC(=O)NCc6ccccc6)C(C)(C)C5CCC43C)C12` (configuration not stated), the TGI in test [1] was more than 100 µM; in [2] it was more than 100 µM; in [3], more than 100 µM; in [4], more than 100 µM; in test [5] it was more than 100 µM; in [6] it was 34.5 µM. Besides, the TGI was more than 100 µM in [7], 6.49 µM in [8], 44 µM in test [9] and 30.4 µM in [10]. Moreover, the GI50 in [2] is 4.08 µM; in test [3], 41.9 µM; in [4], 3.82 µM; in test [5], 2.22 µM; in test [6] it was 1.86 µM; in test [7] it was 6.69 µM. In addition, the GI50 in test [8] was 0.757 µM; in test [9], 2.31 µM; in test [10], 3.42 µM.
Take `CSc1nc2cc(S(=O)(=O)N3CCCCC3)ccc2s1`: the total growth inhibition concentration (TGI) in test [1], in test [2], in test [3], in test [4], in test [5] and in test [6] was more than 100 µM in each case. Besides, the TGI in test [7], in [8], in test [9] and in test [10] was more than 100 µM throughout.
For the molecule `COc1cc2c(c(OC)c1OC)C(=O)[C@@H]1c3ccc([N+](=O)[O-])cc3C(=O)N(CCCBr)[C@H]21`, the GI50 is 3.41 µM in test [1]; 4.71 µM in test [2]; 11.8 µM in test [3]; 11 µM in test [4]; 3.92 µM in [5]; 4.49 µM in test [6]. Moreover, the GI50 in test [7] was 13.6 µM; in test [8], 14.8 µM; in [9], 15.4 µM; in test [10], 14.2 µM. For the same molecule, the TGI in test [1] was 21.3 µM; in test [2] it was more than 100 µM; in test [3], 38.7 µM; in test [4] it was 44.9 µM; in test [5], more than 100 µM; in [6], 25.7 µM. In addition, the concentration for total growth inhibition (TGI) is 49.7 µM in test [7], 91.1 µM in [8], 35.8 µM in test [9] and more than 100 µM in test [10].
Consider `CCC(=O)c1c(C(F)(F)F)n([O-])c2ccc(C)cc2[n+]1=O`, for which the GI50 is 6.29 µM in [2]; 9.19 µM in test [3]; 6.14 µM in test [4]; 0.675 µM in test [5]; 1.48 µM in test [6]; 10.8 µM in test [7]. The GI50 in [8] was 12.4 µM; in test [9] it was 1.2 µM; in test [10], 14.1 µM. In addition, the total growth inhibition concentration (TGI) in [2] is 40.5 µM; in [3], 25.3 µM; in test [4], 36.5 µM; in test [5], more than 50 µM; in test [6] it was more than 50 µM; in [7], more than 50 µM. Moreover, the results for the TGI in test [8], in test [9] and in [10] were more than 50 µM, 6.1 µM and more than 50 µM, respectively.
